The target of this assay is hDPP-IV (Homo sapiens, UniProt P27487). The experiment in a line: DPP-IV inhibitory assay. The class given is biochemical.

Structures are written as SMILES. Peptide text beside a SMILES is read from it.

As usually defined, the IC50 is the concentration at which inhibition is half-maximal. A low value points to higher potency.

hDPP-IV, sequence (P27487 whole entry): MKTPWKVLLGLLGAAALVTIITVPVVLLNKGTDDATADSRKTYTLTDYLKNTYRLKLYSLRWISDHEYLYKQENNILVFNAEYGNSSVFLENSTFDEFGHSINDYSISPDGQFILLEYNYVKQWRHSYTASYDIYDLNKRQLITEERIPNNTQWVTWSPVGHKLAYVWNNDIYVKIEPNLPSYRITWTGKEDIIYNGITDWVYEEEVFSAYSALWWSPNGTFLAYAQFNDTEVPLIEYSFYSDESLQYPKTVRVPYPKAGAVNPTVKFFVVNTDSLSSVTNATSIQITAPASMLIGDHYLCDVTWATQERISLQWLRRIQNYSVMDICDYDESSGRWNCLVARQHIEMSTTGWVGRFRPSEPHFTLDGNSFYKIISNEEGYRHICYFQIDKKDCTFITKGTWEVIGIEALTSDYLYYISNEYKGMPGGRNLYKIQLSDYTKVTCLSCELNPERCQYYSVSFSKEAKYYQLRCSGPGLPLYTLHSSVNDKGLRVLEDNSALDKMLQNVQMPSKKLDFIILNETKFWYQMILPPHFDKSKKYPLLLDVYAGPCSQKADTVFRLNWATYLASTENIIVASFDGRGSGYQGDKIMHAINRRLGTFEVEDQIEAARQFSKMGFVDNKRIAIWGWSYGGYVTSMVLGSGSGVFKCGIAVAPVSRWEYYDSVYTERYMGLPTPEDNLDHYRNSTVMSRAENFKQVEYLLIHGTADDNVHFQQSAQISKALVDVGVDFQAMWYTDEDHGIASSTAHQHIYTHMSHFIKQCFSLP

In turn, `N=C(N)NCCC[C@H](NC(=O)[C@@H](N)Cc1c[nH]c2ccccc12)C(=O)N[C@@H](Cc1ccc(O)cc1)C(=O)O` [WRY] (H-Trp-Arg-Tyr-OH) returned an IC50 of 297 µM.

Regarding `CC(C)[C@H](NC(=O)[C@@H](N)Cc1c[nH]c2ccccc12)C(=O)N[C@@H](C)C(=O)O` [WVA] (H-Trp-Val-Ala-OH), the IC50 was 341 µM.

Compound `CC(C)[C@H](NC(=O)[C@@H](N)Cc1c[nH]c2ccccc12)C(=O)N[C@@H](CS)C(=O)O` [WVC] (H-Trp-Val-Cys-OH) showed a concentration for half-maximal inhibition (IC50) of 232 µM. This IC50 and that of the compound before are within 1.5-fold of each other.

`CC(C)[C@H](NC(=O)[C@@H](N)Cc1c[nH]c2ccccc12)C(=O)N[C@@H](CC(=O)O)C(=O)O` [WVD] (H-Trp-Val-Asp-OH) gave an IC50 of 343 µM. The IC50 values of the last two compounds are within 1.5-fold of each other.

Consider `CC(C)[C@H](NC(=O)[C@@H](N)Cc1c[nH]c2ccccc12)C(=O)N[C@@H](CCC(=O)O)C(=O)O` [WVE] (H-Trp-Val-Glu-OH), for which the midpoint of inhibition, the IC50, lay at 193 µM.

`CC(C)[C@H](NC(=O)[C@@H](N)Cc1c[nH]c2ccccc12)C(=O)N[C@@H](Cc1ccccc1)C(=O)O` [WVF] (H-Trp-Val-Phe-OH) returned an IC50 of 188 µM.

`CC(C)[C@H](NC(=O)[C@@H](N)Cc1c[nH]c2ccccc12)C(=O)NCC(=O)O` [WVG] (H-Trp-Val-Gly-OH) had an IC50 of 341 µM.

Turning to `CC(C)[C@H](NC(=O)[C@@H](N)Cc1c[nH]c2ccccc12)C(=O)N[C@@H](Cc1c[nH]cn1)C(=O)O` [WVH] (H-Trp-Val-His-OH), the midpoint of inhibition, the IC50, lay at 257 µM. This IC50 and that of the compound before are within 1.5-fold of each other.

With `CC(C)[C@H](NC(=O)[C@@H](N)Cc1c[nH]c2ccccc12)C(=O)N[C@@H](CCCCN)C(=O)O` [WVK] (H-Trp-Val-Lys-OH), it took 331 µM to reach half-maximal inhibition (IC50).

Compound `CC(C)C[C@H](NC(=O)[C@@H](NC(=O)[C@@H](N)Cc1c[nH]c2ccccc12)C(C)C)C(=O)O` [WVL] (H-Trp-Val-Leu-OH) registered an IC50 of 399 µM.

For `CSCC[C@H](NC(=O)[C@@H](NC(=O)[C@@H](N)Cc1c[nH]c2ccccc12)C(C)C)C(=O)O` [WVM] (H-Trp-Val-Met-OH), the IC50 amounted to 317 µM.

Regarding `CC(C)[C@H](NC(=O)[C@@H](N)Cc1c[nH]c2ccccc12)C(=O)N[C@@H](CC(N)=O)C(=O)O` [WVN] (H-Trp-Val-Asn-OH), half-maximal inhibition (IC50) required 373 µM.

`CC(C)[C@H](NC(=O)[C@@H](N)Cc1c[nH]c2ccccc12)C(=O)N1CCC[C@H]1C(=O)O` [WVP] (H-Trp-Val-Pro-OH) had an IC50 of 402 µM.

Regarding `CC(C)[C@H](NC(=O)[C@@H](N)Cc1c[nH]c2ccccc12)C(=O)N[C@@H](CO)C(=O)O` [WVS] (H-Trp-Val-Ser-OH), the IC50 worked out at 247 µM.

`CC(C)[C@H](NC(=O)[C@@H](N)Cc1c[nH]c2ccccc12)C(=O)N[C@H](C(=O)O)[C@@H](C)O` [WVT] (H-Trp-Val-Thr-OH) displayed an IC50 of 336 µM.

In turn, `CC(C)[C@H](NC(=O)[C@@H](NC(=O)[C@@H](N)Cc1c[nH]c2ccccc12)C(C)C)C(=O)O` [WVV] (H-Trp-Val-Val-OH) registered an IC50 of 275 µM.

In the case of `CC(C)[C@H](NC(=O)[C@@H](N)Cc1c[nH]c2ccccc12)C(=O)N[C@@H](Cc1c[nH]c2ccccc12)C(=O)O` [WVW] (H-Trp-Val-Trp-OH), the IC50 came to 239 µM. The IC50 values of the last two compounds are within 1.5-fold of each other.

`CC(C)[C@H](NC(=O)[C@@H](N)Cc1c[nH]c2ccccc12)C(=O)N[C@@H](Cc1ccc(O)cc1)C(=O)O` [WVY] (H-Trp-Val-Tyr-OH) displayed an IC50 of 215 µM.

These data come from PMC10601436 (ACS Omega, 2023).
